pIC50: −log10 of the molar value.
Tests used:
physchem = settings: 1-octanol/phosphate buffered saline, pH 7.4
in vitro [1] = settings: human, liver microsomes
[2] = biological target: Voltage-gated inwardly rectifying potassium channel KCNH2 (Homo sapiens, UniProt Q12809)
[3] = Intrinsic permeability of compound from apical to basolateral side in human Caco2 cells; assay type: ADME, cell-based; settings: Caco-2
[4] = Apparent permeability across apical to basolateral side in human Caco-2 cells; assay type: ADME, cell-based
cells = settings: Homo sapiens, Th17, 96 h
in vivo [5] = settings: Han Wistar, rat, po, 1 mg/kg
in vivo [6] = settings: Han Wistar, rat, po, 1 mg/kg; remark: listed apart in the source
in vitro [7] = settings: human, hepatocytes
in vivo [8] = settings: Han Wistar, rat, po, 1 mg/kg; remark: listed apart in the source
[9] = rat, in vivo, po, 1 mg/kg
in vitro [10] = settings: rat, hepatocytes

Voltage-gated inwardly rectifying potassium channel KCNH2, sequence (Q12809 whole entry): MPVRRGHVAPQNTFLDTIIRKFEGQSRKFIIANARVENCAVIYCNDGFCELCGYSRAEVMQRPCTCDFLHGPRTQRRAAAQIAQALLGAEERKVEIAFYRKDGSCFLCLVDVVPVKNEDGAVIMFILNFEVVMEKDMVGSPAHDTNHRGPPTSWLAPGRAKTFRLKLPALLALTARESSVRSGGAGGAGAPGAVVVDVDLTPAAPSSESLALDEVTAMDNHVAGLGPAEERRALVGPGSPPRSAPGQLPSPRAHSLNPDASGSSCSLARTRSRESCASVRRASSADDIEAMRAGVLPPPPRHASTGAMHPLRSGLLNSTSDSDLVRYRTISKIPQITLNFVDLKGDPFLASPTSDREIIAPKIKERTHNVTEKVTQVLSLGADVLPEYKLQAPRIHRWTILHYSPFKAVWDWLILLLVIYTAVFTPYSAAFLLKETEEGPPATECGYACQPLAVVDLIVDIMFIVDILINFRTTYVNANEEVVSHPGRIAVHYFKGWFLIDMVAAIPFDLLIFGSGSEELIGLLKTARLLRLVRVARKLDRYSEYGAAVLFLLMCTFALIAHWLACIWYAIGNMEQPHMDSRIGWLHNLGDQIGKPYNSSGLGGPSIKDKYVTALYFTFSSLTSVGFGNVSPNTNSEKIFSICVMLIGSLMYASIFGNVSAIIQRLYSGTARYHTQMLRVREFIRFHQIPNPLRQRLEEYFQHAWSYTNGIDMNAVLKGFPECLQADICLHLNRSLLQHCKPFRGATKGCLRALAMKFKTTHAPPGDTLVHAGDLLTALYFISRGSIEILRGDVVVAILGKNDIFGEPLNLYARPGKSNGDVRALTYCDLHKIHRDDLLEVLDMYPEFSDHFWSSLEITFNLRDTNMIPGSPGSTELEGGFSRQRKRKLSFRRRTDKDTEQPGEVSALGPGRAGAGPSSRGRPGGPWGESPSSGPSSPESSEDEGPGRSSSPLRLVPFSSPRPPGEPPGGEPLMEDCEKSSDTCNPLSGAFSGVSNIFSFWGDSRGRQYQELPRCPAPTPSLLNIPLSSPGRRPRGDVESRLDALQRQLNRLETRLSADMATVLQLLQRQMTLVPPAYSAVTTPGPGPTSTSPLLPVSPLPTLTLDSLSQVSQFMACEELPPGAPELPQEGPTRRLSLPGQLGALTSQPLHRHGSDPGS

logD (physchem) | microsomal CLint (in vitro [1]) [µL/min/mg] | Compound | further results
2.8 | < 3 | CCS(=O)(=O)c1ccc(C(NC(=O)Cc2ccccn2)C(=O)Nc2ccc(C(O)(C(F)(F)F)C(F)(F)F)cc2)nc1 (stereo not given) | pIC50 [2]: 5.39
3.2 | 19 | COCC(=O)N1Cc2cc(S(=O)(=O)CC3CC3)ccc2C1C(=O)Nc1ccc(C(O)(C(F)(F)F)C(F)(F)F)cc1 (stereo not given) | 
2.5 | < 3 | CNC(=O)N1Cc2cc(S(C)(=O)=O)ccc2C1C(=O)Nc1ccc(C(O)(C(F)(F)F)C(F)(F)F)cc1 (stereo not given) | 
3.1 | 16 | CCS(=O)(=O)c1ccc(C(NC(=O)Cc2nccs2)C(=O)Nc2ccc(C(O)(C(F)(F)F)C(F)(F)F)cc2)nc1 (stereo not given) | Pm [3]: 11; Papp A→B [4]: 2.5 ×10⁻⁶ cm/s; pIC50 [2]: 5.26
3.1 | 5 | CCS(=O)(=O)c1ccc(C(CC(=O)N(C)C)C(=O)Nc2ccc(C(O)(C(F)(F)F)C(F)(F)F)cc2)cc1 (stereo not given) | Pm [3]: 24; Papp A→B [4]: 1.4 ×10⁻⁶ cm/s; pIC50 (cells): 7.04
3.1 | < 3 | CCS(=O)(=O)c1ccc([C@H](CC(=O)NC)C(=O)Nc2ccc(C(O)(C(F)(F)F)C(F)(F)F)cc2)cc1 | pIC50 [2]: < 4.40
3.2 | 11 | CC(=O)N1Cc2cc(S(=O)(=O)NC3CC3)ccc2C1C(=O)Nc1ccc(C(O)(C(F)(F)F)C(F)(F)F)cc1 (stereo not given) | 
1.9 | < 3 | CS(=O)(=O)c1ccc2c(c1)CN(C(=O)CO)C2C(=O)Nc1ccc(C(O)(C(F)(F)F)C(F)(F)F)cc1 (stereo not given) | 
2.1 | 3.1 | CC(=O)N1Cc2cc(S(=O)(=O)CCO)ccc2C1C(=O)Nc1ccc(C(O)(C(F)(F)F)C(F)(F)F)cc1 (stereo not given) | 
2.9 | < 3 | COC(=O)N1Cc2cc(S(C)(=O)=O)ccc2C1C(=O)Nc1ccc(C(O)(C(F)(F)F)C(F)(F)F)cc1 (stereo not given) | 
2.6 | < 3 | CCS(=O)(=O)c1ccc2c(c1)CN(C(=O)C1CCO1)C2C(=O)Nc1ccc(C(O)(C(F)(F)F)C(F)(F)F)cc1 (stereo not given) | 
2.6 | < 3 | CNS(=O)(=O)c1ccc2c(c1)CN(C(=O)C1CCO1)C2C(=O)Nc1ccc(C(O)(C(F)(F)F)C(F)(F)F)cc1 (stereo not given) | 
2.7 | 6.8 | CNS(=O)(=O)c1ccc2c(c1)CN(C=O)C2C(=O)Nc1ccc(C(O)(C(F)(F)F)C(F)(F)F)cc1 (stereo not given) | 
3.4 | < 3 | CC(=O)N1Cc2cc(S(=O)(=O)CC3CC3)ccc2C1C(=O)Nc1ccc(C(O)(C(F)(F)F)C(F)(F)F)cc1 (stereo not given) | 
3.1 | 7.9 | CC(=O)N1Cc2cc(S(=O)(=O)CC3(F)CC3)ccc2C1C(=O)Nc1ccc(C(O)(C(F)(F)F)C(F)(F)F)cc1 (stereo not given) | 
2.9 | < 3 | CC(=O)N1CCc2cc(S(C)(=O)=O)ccc2C1C(=O)Nc1ccc(C(O)(C(F)(F)F)C(F)(F)F)cc1 (racemic) | 
2.7 | < 3 | CC(=O)NC(C(=O)Nc1ccc(C(O)(C(F)(F)F)C(F)(F)F)cc1)c1ccc(S(C)(=O)=O)cc1 (racemic) | 
2.4 | < 3 | CC(=O)N1Cc2cc(S(C)(=O)=O)ccc2C1C(=O)Nc1ccc(C(O)(C(F)(F)F)C(F)(F)F)cc1 (racemic) | CL/F (in vivo [5]): 6.3 mL/min/kg; half-life (in vivo [6]): 4.9 h; hepatocyte CLint (in vitro [7]): < 1 µL/min/1e6 cells; bioavailability (in vivo [8]): 40%; Vdss [9]: 2 L/kg; hepatocyte CLint (in vitro [10]): < 1 µL/min/1e6 cells
